One data set relates to Anas platyrhynchos. As to conditions: short-term; oral; feed; mortality.

Each structure is given as a SMILES string. “And” between values parts separate entries of the source, which are not always exact repeats. Equal values may be shown once.

Turning to `Cn1cc(C(=O)Nc2ccc(F)cc2-c2ccc(Cl)c(Cl)c2)c(C(F)F)n1` [Bixafen], the LC50 with Colinus virginianus (acute, oral, diet, mortality) is over 1160 mg/kg-day; in the data set on Anas platyrhynchos it was over 1550 mg/kg-day. In addition, the LD50 was over 2000 mg/kg-day with Colinus virginianus (acute, oral, mortality) and over 5000 mg/kg-day with Rattus norvegicus (acute, oral, mortality). The NOEC in the data set with Colinus virginianus (reproduction developmental) was 24.5 mg/kg-day and 30 mg/kg-day. The compound further came in with an NOEL in the data set on Rattus norvegicus (chronic, body weight) of 33.3 mg/kg-day. The no-observed-adverse-effect level (NOAEL) (in general, the highest dose or exposure tested at which no adverse effect was seen) in the data set with Rattus norvegicus (chronic, duration: 2 years, organ weight) came to 2 mg/kg-day; in the data set on Rattus norvegicus (developmental, development), 20 mg/kg-day; with Rattus norvegicus (subchronic, duration: 90 days, oral, organ weight), 12.9 mg/kg-day.

Values taken from EPA's ToxValDB 9.5 (doi:10.2903/j.efsa.2012.2917).
